# Key:
# [1] = test system: nitric oxide (NO) production by BAL macrophages; assay type: in vivo, Brown Norway rats; details: compared to asthmatic and naïve rats, p<0.001; macrophages cultured without further treatment
# [2] = test system: TNFα production by BAL macrophages; test: TNFα production by macrophages from BAL of OVA-sensitized asthmatic rats; details: compared with Naive and Dx-treated rats; p<0.001 vs Asthmatic
# [3] = test system: Human RBC; test: Prevention of hemolysis of human red blood cells; assay type: cell-based; details: 20 min, 10 μM Lipid-conjugate, None = 1.000
# Protocol: Hemolysis, the breakdown of red blood cells (RBC), may be either a primary disease in itself, or a syndrome associated with another disease or physiological insult. In order to determine the effect of Lipid-conjugates on hemolysis, red blood cells were incubated in the presence of known membrane destabilizing agents and the release of hemoglobulin into the extracellular medium was detected.
# Human RBC were washed in saline and suspended in Hanks buffer (pH 7.4). Hemolysis was induced in the absence or presence of 10 μM Lipid-conjugates by treatment with either 5 U/ml streptolysin O (SLO), 25 U/ml streptolysin S (SLS), or 5 μg/ml lysophosphatidylcholine (lyso-PC) for 20 min. The cell membranes were spun and the hemoglobin content in the supernatant was determined by measuring the O.D. at 540 nm (Table 5.1).
Substance,"NO level, BAL macrophages [1]","TNFα production, BAL macrophages [2]","HEMOLYSIS (O.D. AT 540 nm), Lyso-PC ([3]; 5 μg/ml lysophosphatidylcholine) [O.D.]","HEMOLYSIS (O.D. AT 540 nm), SLO ([3]; 5 U/ml streptolysin O) [O.D.]","HEMOLYSIS (O.D. AT 540 nm), SLS ([3]; 25 U/ml streptolysin S) [O.D.]"
dipalmitoyl-PE conjugated to HA [Compound XXII],reduced,no significant differences,,,
dipalmitoyl-phosphatidyl-ethanolamine conjugated to heparin [Compound XXIV],,,0.002,0.002,1.100
